# Measured values from patent US20230292743A1, “Method for increasing the lifespan and motility of animal sperm using an inhibitor of Slo3 potassium channel” (IMV TECHNOLOGIES, priority 2017, published 2023).
# Tests used:
# [1] = tested on: bovine sperm; assay: Bovine sperm motility by CASA analysis (VCL, total motility) after 24 h in capacitation medium; assay type: cell-based; details: 24 h in capacitation medium at 37° C., vs control
# Method: For motility, sperm were incubated with 0.2, 0.5, 1 and 5 μM clofilium diluted in the capacitation medium for 24 hours at 37° C. under saturated humidity. Sperm motility was measured using Computer Assisted Semen Analysis (CASA analysis). The CASA analysis was performed using a CEROS™, Hamilton Thorne Bioscience, USA. VCL (curvilinear velocity) was then measured. 2. The viability of the capacitated sperm was determined by the measurement of the sperm motility. The motility analysis was carried out as in Example 1.3. The first results are shown in FIGS. 6A and 6B, which illustrates the motility (in terms of VCL, in μm/s), i.e. the sperm velocity, sperm being incubated 24 h in a capacitation medium prior CASA, for each of the solutions tested: control (“[0 μM]”), 0.2 μM clofilium (“[0.2 μM]”), 0.5 μM clofilium (“[0.5 μM]” or “[0.5]”), 1 μM clofilium (“[1 μM]” or “[1]”) and 5 μM clofilium (“[5 μM]” or “[5]”) (FIG. 6A) and which illustrates the total motility (%), for each of the solutions tested “[0μM ]”, “[0.2 μM]” (or “[0.2]”), “[0.5 μM ]” (or “[0.5]”), “[1 μM ]” (or “[1]”) and “[5 μM ]” (or “[5]”) (FIG. 6B). As known to the skilled person, the “total motility”indicates the overall percentage of sperm that are moving in any direction (VAP>1μm/s).
# [2] = tested on: bovine sperm; assay: Ability of frozen-thawed bovine capacitated sperm to fertilize oocytes after 24 h incubation in sp-TALP (2-cell embryos, blastocysts); assay type: cell-based; details: 0.2 μM clofilium in sp-TALP 24 h prior fertilization, vs control 24 h
# Method: Bovine sperm was obtained by ejaculation. Ejaculate was diluted 1:1 in Optixcell. After 10 minutes of 34° C. incubation, semen was then diluted to a final concentration of 57 million of spermatozoa/mL in Optixcell. Optixcell is a TRIS citrate buffer containing liposomes extruded from egg yolk lecithins, glycerol and antibiotics described by CEE (Directive 88/407/CEE). Diluted semen was slowly cooled down to 4° C. (3 to 4 h equilibration in a tempered water-bath), 0.25 mL straws were filled and then frozen in a controlled rate freezer at a cooling rate of 5° C./min from 4° C. to −10° C., 40° C./min from −10° C. to −110° C., 15° C./min from −110° C. to […]. Straws were then stored in liquid nitrogen until in vitro fertilization. Straws were thawed in a water-bath at 37° C. for 45 s. Each straw was wiped with 70° ethanol before being opened. […] Sperm concentration was measured and 750 000 sperm cells are injected into a fertilization droplet (500 μL) containing oocytes bathing in fertilization medium. […] Sperm (1.5 M/mL) and cumulus oocyte complexes (COCs) co-culture were performed at 38.5° C. under gaseous atmosphere of 5% v/v CO2 and saturated humidity for 48 h and then fertilization outcome was assessed. […] Cleavage rate assessed at 48 h and blastocyst rate at day 9 post-fertilization. […]
smiles,measurement,setting,value
CCCCCCC[N+](CC)(CC)CCCCc1ccc(Cl)cc1 [clofilium],"motility (in terms of VCL), sperm velocity",[1]; 0.2 μM clofilium,higher velocity than the non-treated
same,"motility (in terms of VCL), sperm velocity",[1]; 0.5 μM clofilium,higher velocity than the non-treated
same,"motility (in terms of VCL), sperm velocity",[1]; 1 μM clofilium,higher velocity than the non-treated
same,percentage of blastocysts vs matured oocytes 9 days after fertilization,[2],improves the yield of bovine blastocysts
